Values of other authors, collected in patent US20250339366A1, “AN ORODISPERSIBLE TABLET OF RIVAROXABAN” (INTAS PHARMACEUTICALS LTD., priority 2022, published 2025).

Solubility in water: practically insoluble in water
Structure (SMILES): O=C(NC[C@H]1CN(c2ccc(N3CCOCC3=O)cc2)C(=O)O1)c1ccc(Cl)s1 [Rivaroxaban, 5-Chloro-N-({(5S)-2-oxo-3-[4-(3-oxo-4-morpholinyl)phenyl]-1,3-oxzolidin-5-yl}methyl)-2-thiophene-carboxamide]
